Results taken from patent US20250136606A1, “MODULATORS OF TRPML, THEIR COMPOSITIONS AND METHODS OF USE” (Caraway Therapeutics, Inc., priority 2021, published 2025).
Where two headings read alike, the source gives them in different places.

Columns and labels:
Assay type in all cases: cell-based
TRPML1 = TRPML1 (Homo sapiens, UniProt Q9GZU1); assay: Fluorescent TRPML1 assay (Fluo4-AM calcium fluorescence in doxycycline-induced HEK-293 Trex cells)
In short: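 HEK-293 Trex cells stably carrying human TRPML1 (surface-trafficking mutant) were induced overnight with 0.5 ug/mL doxycycline, loaded with 1 micromolar Fluo4-AM, and suspended in Ringer's with 10 mM calcium. Compounds at 20 micromolar to 6 nanomolar final, half-log steps, triplicate; fluorescence 480/540 nm gave percent activity versus controls and EC50 by non-linear regression.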

TRPML2 = target: T1, TRPML2 (Homo sapiens, UniProt Q8IZK6); assay: Fluorescent TRPML2 assay (performed as for TRPML1, substituting the TRPML2 subtype)
T1 construct: expressed in transfected cells
T1 sequence (Q8IZK6 1-566): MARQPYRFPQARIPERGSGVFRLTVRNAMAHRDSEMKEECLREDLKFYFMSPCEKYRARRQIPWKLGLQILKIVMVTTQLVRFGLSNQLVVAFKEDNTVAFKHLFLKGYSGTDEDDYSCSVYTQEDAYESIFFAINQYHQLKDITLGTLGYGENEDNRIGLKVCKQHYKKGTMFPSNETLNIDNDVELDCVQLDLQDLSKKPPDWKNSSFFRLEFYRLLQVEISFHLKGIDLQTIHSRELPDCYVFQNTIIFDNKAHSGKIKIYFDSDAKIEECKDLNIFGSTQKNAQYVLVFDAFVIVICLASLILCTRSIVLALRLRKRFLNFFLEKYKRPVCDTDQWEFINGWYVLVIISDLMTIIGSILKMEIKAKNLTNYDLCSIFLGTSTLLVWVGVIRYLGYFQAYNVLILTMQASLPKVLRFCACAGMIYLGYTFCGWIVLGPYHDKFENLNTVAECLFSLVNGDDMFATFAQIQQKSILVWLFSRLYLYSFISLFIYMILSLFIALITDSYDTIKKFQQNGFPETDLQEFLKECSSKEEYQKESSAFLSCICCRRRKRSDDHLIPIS
In short: (§1)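 Calcium-influx readout: Fluo4 fluorescence at 480/540 nm, normalised to positive and negative controls per plate, EC50 fitted by non-linear regression. Cells were HEK-293 Trex stable lines, channel expression induced overnight with 0.5 ug/mL doxycycline; tested at 20 micromolar down to 6 nanomolar final, half-log steps, triplicate.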

TRPML3 = target: T2, TRPML3 (Homo sapiens, UniProt Q8TDD5); assay: Fluorescent TRPML3 assay (performed as for TRPML1, substituting the TRPML3 subtype)
T2 construct: expressed in transfected cells
T2 sequence (Q8TDD5 1-553): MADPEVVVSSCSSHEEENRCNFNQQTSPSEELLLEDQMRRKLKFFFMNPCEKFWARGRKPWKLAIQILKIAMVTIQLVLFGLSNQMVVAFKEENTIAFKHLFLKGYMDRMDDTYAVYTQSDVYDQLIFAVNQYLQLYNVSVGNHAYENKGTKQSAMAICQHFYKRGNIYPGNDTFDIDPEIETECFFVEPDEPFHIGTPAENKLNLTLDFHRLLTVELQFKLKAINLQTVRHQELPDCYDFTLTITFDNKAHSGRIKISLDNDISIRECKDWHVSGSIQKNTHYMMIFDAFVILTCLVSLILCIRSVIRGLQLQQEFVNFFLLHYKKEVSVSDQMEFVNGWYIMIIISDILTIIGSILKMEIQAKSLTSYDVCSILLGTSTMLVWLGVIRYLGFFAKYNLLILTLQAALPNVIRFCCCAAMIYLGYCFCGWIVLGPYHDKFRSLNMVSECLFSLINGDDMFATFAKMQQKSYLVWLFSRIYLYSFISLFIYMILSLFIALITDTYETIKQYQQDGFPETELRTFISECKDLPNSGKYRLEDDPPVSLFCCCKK
In short: as §1

Sequence of TRPML1 (Q9GZU1 whole entry L15A/L16A/L577A/L578A, form open): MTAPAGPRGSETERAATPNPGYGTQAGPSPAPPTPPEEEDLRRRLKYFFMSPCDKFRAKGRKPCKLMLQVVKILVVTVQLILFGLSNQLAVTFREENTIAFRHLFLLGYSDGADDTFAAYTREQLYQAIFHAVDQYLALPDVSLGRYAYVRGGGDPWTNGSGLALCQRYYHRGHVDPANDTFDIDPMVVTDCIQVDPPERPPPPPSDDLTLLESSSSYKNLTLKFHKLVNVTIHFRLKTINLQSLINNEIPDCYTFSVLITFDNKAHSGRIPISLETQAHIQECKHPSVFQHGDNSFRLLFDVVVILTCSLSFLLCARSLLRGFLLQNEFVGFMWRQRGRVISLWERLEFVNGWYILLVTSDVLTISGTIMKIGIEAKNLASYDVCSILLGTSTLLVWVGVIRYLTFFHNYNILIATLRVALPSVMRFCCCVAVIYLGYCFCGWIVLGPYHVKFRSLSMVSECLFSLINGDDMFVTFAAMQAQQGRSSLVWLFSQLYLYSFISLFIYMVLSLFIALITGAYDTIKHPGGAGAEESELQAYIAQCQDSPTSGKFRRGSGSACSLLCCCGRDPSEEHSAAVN

C[C@H]1CN(C(=O)OC(C)(C)C)CCN1c1ncnc2c1c(N1CCCCC1)cn2-c1cccc(Cl)c1 [Compound 310, tert-butyl (S)-4-(7-(3-chlorophenyl)-5-(piperidin-1-yl)-7H-pyrrolo[2,3-d]pyrimidin-4-yl)-3-methylpiperazine-1-carboxylate] was tested, and the EC50 (TRPML1; fluorescent calcium assay) was under 100 nM, the EC50 (TRPML2; fluorescent calcium assay) was under 100 nM and the EC50 (TRPML3; fluorescent calcium assay) was under 100 nM.
Compound C[C@H]1CN(C(=O)OC(C)(C)C)CCN1c1ncnc2c1c(N1CCC1)cn2-c1cc(C#N)ccn1 [Compound 407, tert-butyl (S)-4-(5-(azetidin-1-yl)-7-(4-cyanopyridin-2-yl)-7H-pyrrolo[2,3-d]pyrimidin-4-yl)-3-methylpiperazine-1-carboxylate] has an EC50 (TRPML1; fluorescent calcium assay) of under 100 nM, an EC50 (TRPML2; fluorescent calcium assay) of under 100 nM and an EC50 (TRPML3; fluorescent calcium assay) of under 100 nM.
C[C@@H]1CN(c2ncnc3c2c(C(F)(F)F)cn3[C@@H]2CCCC(F)(F)C2)[C@@H](C)CN1C(=O)OC(C)(C)C (single isomer, unassigned) [Compound 714] was tested, and the EC50 (TRPML1) was 100 to 500 nM, the EC50 (TRPML2) was 500 to 2000 nM and the EC50 (TRPML3) was 100 to 500 nM.
C[C@@H]1CN(c2ncnc3c2c(-c2ccccc2F)cn3-c2cc(Cl)ccn2)[C@@H](C)CN1C(=O)OC(C)(C)C [Compound 454, tert-butyl (2R,5S)-4-(7-(4-chloropyridin-2-yl)-5-(2-fluorophenyl)-7H-pyrrolo[2,3-d]pyrimidin-4-yl)-2,5-dimethylpiperazine-1-carboxylate] gave an EC50 (TRPML1; fluorescent calcium assay) of under 100 nM, an EC50 (TRPML2; fluorescent calcium assay) of under 100 nM and an EC50 (TRPML3; fluorescent calcium assay) of under 100 nM.
C[C@@H]1CN(c2ncnc3c2c(C2CC2)cn3-c2cc(F)cc(Cl)c2)[C@@H](C)CN1C(=O)OC(C)(C)C [Compound 236, tert-butyl (2R,5S)-4-(7-(3-chloro-5-fluorophenyl)-5-cyclopropyl-7H-pyrrolo[2,3-d]pyrimidin-4-yl)-2,5-dimethylpiperazine-1-carboxylate] showed an EC50 (TRPML1; fluorescent calcium assay) of under 100 nM, an EC50 (TRPML2; fluorescent calcium assay) of 100 to 500 nM and an EC50 (TRPML3; fluorescent calcium assay) of under 100 nM.
Work on C[C@@H]1CN(C(=O)OC(C)(C)C)CCN1c1ncnc2c1c(C1CC1)cn2-c1cccc(OC(F)F)c1 [Compound 197, tert-butyl (R)-4-(5-cyclopropyl-7-(3-(difluoromethoxy)phenyl)-7H-pyrrolo[2,3-d]pyrimidin-4-yl)-3-methylpiperazine-1-carboxylate] yielded an EC50 (TRPML1; fluorescent calcium assay) of 100 to 500 nM, an EC50 (TRPML2; fluorescent calcium assay) of 100 to 500 nM and an EC50 (TRPML3; fluorescent calcium assay) of 100 to 500 nM.
Work on CC(OC(=O)N1CCN(c2ncnc3c2c(-c2ccccc2F)cn3-c2cc(C#N)ccn2)[C@@H](C)C1)C(F)(F)F (stereo partly drawn) [Compound 348, 1,1,1-trifluoropropan-2-yl (3S)-4-(7-(4-cyanopyridin-2-yl)-5-(2-fluorophenyl)-7H-pyrrolo[2,3-d]pyrimidin-4-yl)-3-methylpiperazine-1-carboxylate] yielded an EC50 (TRPML1; fluorescent calcium assay) of under 100 nM, an EC50 (TRPML2; fluorescent calcium assay) of under 100 nM and an EC50 (TRPML3; fluorescent calcium assay) of under 100 nM.
For C[C@@H]1CN(C(=O)OC(C)(C)C)CCN1c1ncnc2c1c(C1=CCOCC1)cn2-c1cccc(F)c1 [Compound 471, tert-butyl (R)-4-(5-(3,6-dihydro-2H-pyran-4-yl)-7-(3-fluorophenyl)-7H-pyrrolo[2,3-d]pyrimidin-4-yl)-3-methylpiperazine-1-carboxylate], the EC50 (TRPML1; fluorescent calcium assay) was 500 to 2000 nM, the EC50 (TRPML2; fluorescent calcium assay) was 500 to 2000 nM and the EC50 (TRPML3; fluorescent calcium assay) was 100 to 500 nM.
Cc1nccnc1-c1cn(-c2cccc(Cl)c2)c2ncnc(N3C[C@@H](C)N(C(=O)OC(C)(C)C)C[C@@H]3C)c12 [Compound 461, tert-butyl (2R,5S)-4-(7-(3-chlorophenyl)-5-(3-methylpyrazin-2-yl)-7H-pyrrolo[2,3-d]pyrimidin-4-yl)-2,5-dimethylpiperazine-1-carboxylate] gave an EC50 (TRPML1; fluorescent calcium assay) of under 100 nM, an EC50 (TRPML2; fluorescent calcium assay) of 100 to 500 nM and an EC50 (TRPML3; fluorescent calcium assay) of under 100 nM.
Compound C[C@@H]1CN(c2ncnc3c2c(-n2cccn2)cn3-c2cccc(Cl)c2)CCN1C(=O)OC(C)(C)C [Compound 332, tert-butyl (R)-4-(7-(3-chlorophenyl)-5-(1H-pyrazol-1-yl)-7H-pyrrolo[2,3-d]pyrimidin-4-yl)-2-methylpiperazine-1-carboxylate] has an EC50 (TRPML1; fluorescent calcium assay) of under 100 nM, an EC50 (TRPML2; fluorescent calcium assay) of 500 to 2000 nM and an EC50 (TRPML3; fluorescent calcium assay) of under 100 nM.
C[C@@H]1CN(c2ncnc3c2c(N2CCCC2)cn3-c2cccc(Cl)c2)CCN1C(=O)OC(C)(C)C [Compound 193, tert-butyl (R)-4-(7-(3-chlorophenyl)-5-(pyrrolidin-1-yl)-7H-pyrrolo[2,3-d]pyrimidin-4-yl)-2-methylpiperazine-1-carboxylate] gave an EC50 (TRPML1; fluorescent calcium assay) of under 100 nM, an EC50 (TRPML2; fluorescent calcium assay) of 100 to 500 nM and an EC50 (TRPML3; fluorescent calcium assay) of under 100 nM.
For CC(C)(C)OC(=O)N1CCCN(c2ncnc3c2c(C2CC2)cn3-c2cc(C#N)ccn2)CCC1 [Compound 482, tert-butyl 5-(7-(4-cyanopyridin-2-yl)-5-cyclopropyl-7H-pyrrolo[2,3-d]pyrimidin-4-yl)-1,5-diazocane-1-carboxylate], the EC50 (TRPML1; fluorescent calcium assay) was under 100 nM, the EC50 (TRPML2; fluorescent calcium assay) was 100 to 500 nM and the EC50 (TRPML3; fluorescent calcium assay) was under 100 nM.
Work on Cc1cn(-c2ccccc2)c2ncnc(N3CCN(C(=O)OC(C)(C)C)C[C@@H]3C)c12 [Compound 685, tert-butyl (S)-3-methyl-4-(5-methyl-7-phenyl-7H-pyrrolo[2,3-d]pyrimidin-4-yl)piperazine-1-carboxylate] yielded an EC50 (TRPML1) of under 100 nM, an EC50 (TRPML2) of 500 to 2000 nM and an EC50 (TRPML3) of under 100 nM.
Work on [2H]C([2H])([2H])[C@@H]1CN(c2ncnc3c2c(C2CC2)cn3-c2cc(C#N)ccn2)[C@@H](C)CN1C(=O)OC(C)(C)C [Compound 711, tert-butyl (2R,5S)-4-(7-(4-cyanopyridin-2-yl)-5-cyclopropyl-7H-pyrrolo[2,3-d]pyrimidin-4-yl)-5-methyl-2-(methyl-d3)piperazine-1-carboxylate] yielded an EC50 (TRPML1) of under 100 nM, an EC50 (TRPML2) of 500 to 2000 nM and an EC50 (TRPML3) of 100 to 500 nM.
Work on C[C@H]1CN(C(=O)OC(C)(C)CF)CCN1c1ncnc2c1c(-c1ccccc1)cn2-c1cnn(C)c1 [Compound 191, 1-fluoro-2-methylpropan-2-yl (S)-3-methyl-4-(7-(1-methyl-1H-pyrazol-4-yl)-5-phenyl-7H-pyrrolo[2,3-d]pyrimidin-4-yl)piperazine-1-carboxylate] yielded an EC50 (TRPML1; fluorescent calcium assay) of 100 to 500 nM, an EC50 (TRPML2; fluorescent calcium assay) of 500 to 2000 nM and an EC50 (TRPML3; fluorescent calcium assay) of 100 to 500 nM.
C[C@H]1CN(C(=O)OC(C)(C)C)CCN1c1ncnc2c1c(N(C)C1CC1)cn2-c1cccc(C#N)c1 [Compound 526] was tested, and the EC50 (TRPML1) was 100 to 500 nM, the EC50 (TRPML2) was 100 to 500 nM and the EC50 (TRPML3) was 100 to 500 nM.
Work on C[C@H]1CN(C(=O)OC(C)(C)C)CCN1c1ncnc2c1c(C(F)(F)F)cn2-c1cc(C#N)ccn1 [Compound 481, tert-butyl (S)-4-(7-(4-cyanopyridin-2-yl)-5-(trifluoromethyl)-7H-pyrrolo[2,3-d]pyrimidin-4-yl)-3-methylpiperazine-1-carboxylate] yielded an EC50 (TRPML1; fluorescent calcium assay) of under 100 nM, an EC50 (TRPML2; fluorescent calcium assay) of under 100 nM and an EC50 (TRPML3; fluorescent calcium assay) of under 100 nM.
COc1cc(C#N)cc(-n2cc(C3CC3)c3c(N4CCN(C(=O)OC(C)(C)C)C[C@@H]4C)ncnc32)c1 [Compound 302, tert-butyl (S)-4-(7-(3-cyano-5-methoxyphenyl)-5-cyclopropyl-7H-pyrrolo[2,3-d]pyrimidin-4-yl)-3-methylpiperazine-1-carboxylate] showed an EC50 (TRPML1; fluorescent calcium assay) of 500 to 2000 nM, an EC50 (TRPML2; fluorescent calcium assay) of over 2000 nM and an EC50 (TRPML3; fluorescent calcium assay) of 100 to 500 nM.
For C[C@H]1CN(C(=O)OC(C)(C)C)CCN1c1ncnc2c1c(C1COC1)cn2-c1cccc(F)c1 [Compound 474, tert-butyl (S)-4-(7-(3-fluorophenyl)-5-(oxetan-3-yl)-7H-pyrrolo[2,3-d]pyrimidin-4-yl)-3-methylpiperazine-1-carboxylate], the EC50 (TRPML1; fluorescent calcium assay) was over 2000 nM, the EC50 (TRPML2; fluorescent calcium assay) was over 2000 nM and the EC50 (TRPML3; fluorescent calcium assay) was over 2000 nM.
CCOC(=O)N1CCN(c2ncnc3c2c(-c2ccccn2)cn3-c2ccc(F)c(Cl)c2)CC1 [Compound 152, ethyl 4-(7-(3-chloro-4-fluorophenyl)-5-(pyridin-2-yl)-7H-pyrrolo[2,3-d]pyrimidin-4-yl)piperazine-1-carboxylate] was tested, and the EC50 (TRPML1; fluorescent calcium assay) was 500 to 2000 nM, the EC50 (TRPML2; fluorescent calcium assay) was over 2000 nM and the EC50 (TRPML3; fluorescent calcium assay) was 500 to 2000 nM.
